{"source": "patent USRE48461E1", "about": "“Modulation of androgen receptor expression” (Ionis Pharmaceuticals, Inc., priority 2012, dated 2021)", "key": {"testosterone": {"test_system": "testosterone", "test": "Serum testosterone levels in cynomolgus monkeys (ELISA)", "assay_type": "in vivo", "settings": "cynomolgus monkey, 40 mg/kg subcutaneously, 40 mg/kg", "protocol": "Serum testosterone protein levels were measured in the plasma with an ELISA kit (Enzo Life Sciences), following the manufacturer's instructions."}, "[1]": {"settings": "cynomolgus monkey, in vivo, sc, 40 mg/kg", "procedure": "(§1) Prior to the study, the monkeys were kept in quarantine for a 30-day period, during which the animals were observed daily for general health. The monkeys were 2-4 years old and weighed between 2 and 4 kg. Thirteen groups of four randomly assigned male cynomolgus monkeys each were injected subcutaneously with ISIS oligonucleotide or PBS. PBS solution or ISIS oligonucleotides, at a dose of 40 mg/kg, were administered with a loading regimen consisting of four doses on the first week of the study (days 1, 3, 5, and 7), followed by a maintenance regimen consisting of once weekly administration starting on Day 14 (weeks 2 to 6). Subcutaneous injections were performed in clock-wise rotations at 4 sites on the back; one site per dose. The injection sites were delineated by tattoo, while sedated using ketamine, and were separated by a minimum of 3 cm.\nTo evaluate the effect of ISIS oligonucleotides on hepatic function, the monkeys were fasted overnight. Approximately, 1.5 mL of blood samples were collected on day 44 from all the study groups. Blood was collected in tubes without anticoagulant for serum separation. The tubes were kept at room temperature for a minimum of 90 min and then centrifuged at 3,000 rpm for 10 min. Levels of various liver function markers were measured using a Toshiba 120FR NEO chemistry analyzer (Toshiba Co., Japan)."}, "[2]": {"settings": "cynomolgus monkey, in vivo, sc, 40 mg/kg", "remark": "listed apart in the source"}, "[3]": {"settings": "cynomolgus monkey, in vivo, sc, 40 mg/kg", "remark": "listed apart in the source"}, "AR V7 variant mRNA": {"test_system": "AR V7 variant mRNA", "test": "AR V7 variant RNA in VCaP cells", "assay_type": "cell-based, human", "settings": "RNAiMax, 48 hrs", "protocol": "Cells were plated at 10,000 cells per well. […] ISIS 549148 was included as a negative control. After an incubation period of 48 hrs, RNA levels of full length AR, the V7 variant, PSA and TMPRSS2 were measured.\nA separate set of cells was treated with MDV-3100 at 0.04 μM, 0.2 μM, 1.0 μM, or 5.0 μM. After an incubation period of 48 hrs, RNA levels of full length AR, the V7 variant, PSA and TMPRSS2 were measured. The data is presented in Tables 108 expressed as percent expression of gene levels compared to the untreated control.\nCells were plated at 15,000 cells per well and cultured in CSS media for 16 hours. […] ISIS 549148 was included as a negative control. After 4 hrs, 1 nM DHT was added. […] After an incubation period of 48 hrs, RNA levels of AR, PSA and TMPRSS2 were measured. […]"}, "[4]": {"settings": "cynomolgus monkey, in vivo, sc, 40 mg/kg", "remark": "listed apart in the source", "procedure": "as §1\nTo evaluate the effect of ISIS oligonucleotides on the overall health of the animals, body and organ weights were measured."}, "[5]": {"settings": "cynomolgus monkey, in vivo"}, "[6]": {"settings": "cynomolgus monkey, in vivo, sc, 40 mg/kg", "remark": "listed apart in the source"}, "AR mRNA [7]": {"test_system": "AR mRNA", "test": "AR RNA expression in LNCaP cells (complete, CSS, CSS+DHT medium)", "assay_type": "cell-based, human", "settings": "for Percent expression of AR in LNCaP cells cultured in CSS + DHT medium: CSS + DHT (1 nM) medium; for Percent expression of AR in LNCaP cells cultured in CSS + DHT medium / Percent expression of AR in LNCaP cells cultured in CSS medium: 48 hrs; for Percent expression of AR in LNCaP cells cultured in complete medium: 48 hours", "protocol": "Cells were plated at 1,000 cells per well. […] After an incubation period of 48 hours, RNA levels of AR, PSA and TMPRSS2 were measured.\nCells were plated at 2,000 cells per well and cultured in phenol red-free RPMI supplemented with 5% charcoal stripped serum (Gibco) media for 16 hours. […] After an incubation period of 4 hrs, DHT was added to the medium to a final concentration of 1 nM as indicated. RNAs were collected 48 hrs later and levels of AR, PSA and TMPRSS2 were measured."}, "full-length AR": {"test_system": "full-length AR", "test": "Western blot of full-length AR in C4-2B cells (time course)", "assay_type": "cell-based, human", "settings": "24 hours and 48 hours, normalized to GAPDH", "protocol": "Protein levels in the cells were also analyzed. The cells were harvested in RIPA buffer containing protease inhibitors. The presence of bands for full-length AR was detected by western blot using AR antibody (N-20, SC-816, Santa Cruz Biotechnology)."}, "AR mRNA [8]": {"test_system": "AR mRNA", "test": "AR mRNA expression in MDA-MB-453 breast cancer orthotopic model", "assay_type": "in vivo, human", "settings": "Study 2; tumor tissue, normalized to human actin; 50 mg/kg s.c. 5 days per week for 2 weeks"}}}
{"sequence": "TTGATTTAATGGTTGC [ISIS 560131] (MOE and (S)-cEt gapmer chemistry, further chemistry not given here) [targets intron 1]", "values": [{"measurement": "Serum testosterone level", "setting": "testosterone", "value": 14.7, "unit": "ng/mL"}, {"measurement": "ALT", "setting": "[1]", "value": 68, "unit": "IU/L"}, {"measurement": "AST", "setting": "[1]", "value": 87, "unit": "IU/L"}, {"measurement": "Albumin", "setting": "[1]", "value": 4.0, "unit": "g/dL"}, {"measurement": "Plasma BUN", "setting": "[2]", "value": 23.7, "unit": "mg/dL"}, {"measurement": "Plasma Creatinine", "setting": "[2]", "value": 0.84, "unit": "mg/dL"}, {"measurement": "C3 (% of baseline)", "setting": "[3]", "value": "100 % of baseline"}, {"measurement": "CRP", "setting": "[3]", "value": 1.7, "unit": "mg/dL"}, {"measurement": "Percent inhibition of AR V7 variant", "setting": "AR V7 variant mRNA; CSS + DHT medium, 1.34 nM", "value": 27, "unit": "%"}, {"measurement": "Percent inhibition of AR V7 variant", "setting": "AR V7 variant mRNA; CSS + DHT medium, 4.0 nM", "value": 31, "unit": "%"}, {"measurement": "Percent inhibition of AR V7 variant", "setting": "AR V7 variant mRNA; CSS + DHT medium, 13.4 nM", "value": 39, "unit": "%"}, {"measurement": "Percent inhibition of AR V7 variant", "setting": "AR V7 variant mRNA; CSS + DHT medium, 40 nM", "value": 41, "unit": "%"}, {"measurement": "Percent inhibition of AR V7 variant", "setting": "AR V7 variant mRNA; complete medium, 1.34 nM", "value": 0, "unit": "%"}, {"measurement": "Percent inhibition of AR V7 variant", "setting": "AR V7 variant mRNA; complete medium, 4.0 nM", "value": 57, "unit": "%"}, {"measurement": "Percent inhibition of AR V7 variant", "setting": "AR V7 variant mRNA; complete medium, 13.4 nM", "value": 78, "unit": "%"}, {"measurement": "Percent inhibition of AR V7 variant", "setting": "AR V7 variant mRNA; complete medium, 40 nM", "value": 84, "unit": "%"}, {"measurement": "Body Wt", "setting": "[4]", "value": 2.4, "unit": "kg"}, {"measurement": "Heart weight", "setting": "[4]", "value": 9.8, "unit": "g"}, {"measurement": "Kidney weight", "setting": "[4]", "value": 12, "unit": "g"}, {"measurement": "Liver weight", "setting": "[4]", "value": 58, "unit": "g"}, {"measurement": "Mesenteric lymph nodes weight", "setting": "[4]", "value": 2.0, "unit": "g"}, {"measurement": "Spleen weight", "setting": "[4]", "value": 2.5, "unit": "g"}, {"measurement": "K/L ratio", "setting": "[5]", "value": 2.6}, {"measurement": "Oligonucleotide concentration, Liver", "setting": "[5]; sc, 40 mg/kg", "value": 793, "unit": "μg/g tissue"}, {"measurement": "HCT", "setting": "[6]", "value": 44, "unit": "%"}, {"measurement": "Hemoglobin", "setting": "[6]", "value": 13.1, "unit": "g/dL"}, {"measurement": "Platelets", "setting": "[6]", "value": 392000, "unit": "µL"}, {"measurement": "RBC", "setting": "[6]", "value": "5.8e+06", "unit": "µL"}, {"measurement": "WBC", "setting": "[6]", "value": 11300, "unit": "µL"}, {"measurement": "Percent expression of AR in LNCaP cells cultured in CSS + DHT medium", "setting": "AR mRNA [7]; 0.04 μM", "value": 101, "unit": "%"}, {"measurement": "Percent expression of AR in LNCaP cells cultured in CSS + DHT medium", "setting": "AR mRNA [7]; 0.2 μM", "value": 71, "unit": "%"}, {"measurement": "Percent expression of AR in LNCaP cells cultured in CSS + DHT medium", "setting": "AR mRNA [7]; 1 μM", "value": 27, "unit": "%"}, {"measurement": "Percent expression of AR in LNCaP cells cultured in CSS + DHT medium", "setting": "AR mRNA [7]; 5.0 μM", "value": 10, "unit": "%"}, {"measurement": "Percent expression of AR in LNCaP cells cultured in CSS medium", "setting": "AR mRNA [7]; 0.04 μM", "value": 81, "unit": "%"}, {"measurement": "Percent expression of AR in LNCaP cells cultured in CSS medium", "setting": "AR mRNA [7]; 0.2 μM", "value": 46, "unit": "%"}, {"measurement": "Percent expression of AR in LNCaP cells cultured in CSS medium", "setting": "AR mRNA [7]; 1 μM", "value": 16, "unit": "%"}, {"measurement": "Percent expression of AR in LNCaP cells cultured in CSS medium", "setting": "AR mRNA [7]; 5.0 μM", "value": 5, "unit": "%"}, {"measurement": "Percent expression of AR in LNCaP cells cultured in complete medium", "setting": "AR mRNA [7]; 0.04 μM", "value": 101, "unit": "%"}, {"measurement": "Percent expression of AR in LNCaP cells cultured in complete medium", "setting": "AR mRNA [7]; 0.2 μM", "value": 53, "unit": "%"}, {"measurement": "Percent expression of AR in LNCaP cells cultured in complete medium", "setting": "AR mRNA [7]; 1 μM", "value": 17, "unit": "%"}, {"measurement": "Percent expression of AR in LNCaP cells cultured in complete medium", "setting": "AR mRNA [7]; 5.0 μM", "value": 7, "unit": "%"}, {"measurement": "full-length AR protein (western blot)", "setting": "full-length AR", "value": "significantly reduced"}, {"measurement": "AR RNA expression inhibited compared to the control group", "setting": "AR mRNA [8]", "value": 35, "unit": "%"}]}
